Data on three compounds can be found in PMC10805800 (Cell Discovery, 2024).

What all share (type): binding
Test [1] has as its target T1, LRRK2 (Leucine-rich repeat kinase 2) (Homo sapiens, UniProt Q5S007).
T1 construct: full-length LRRK2
The test can be described thus: cryo-EM structure at […] Å; also ADP-Glo kinase inhibition (RCKWm). (In general: In ADP-Glo the light output rises with the ADP produced.)

The target in test [2] is T1, LRRK2 (Leucine-rich repeat kinase 2). Described as above. The source holds these as a separate data set.
Test [3] concerns the target T2, LRRK2 (Leucine-rich repeat kinase 2) (Homo sapiens, UniProt Q5S007, M1732R).
T2 construct: LRRK2^RCKWm (ROC-COR-KIN-WD40, without ARM-ANK-LRR domains)
T2 sequence (Q5S007 1327-2527 M1732R): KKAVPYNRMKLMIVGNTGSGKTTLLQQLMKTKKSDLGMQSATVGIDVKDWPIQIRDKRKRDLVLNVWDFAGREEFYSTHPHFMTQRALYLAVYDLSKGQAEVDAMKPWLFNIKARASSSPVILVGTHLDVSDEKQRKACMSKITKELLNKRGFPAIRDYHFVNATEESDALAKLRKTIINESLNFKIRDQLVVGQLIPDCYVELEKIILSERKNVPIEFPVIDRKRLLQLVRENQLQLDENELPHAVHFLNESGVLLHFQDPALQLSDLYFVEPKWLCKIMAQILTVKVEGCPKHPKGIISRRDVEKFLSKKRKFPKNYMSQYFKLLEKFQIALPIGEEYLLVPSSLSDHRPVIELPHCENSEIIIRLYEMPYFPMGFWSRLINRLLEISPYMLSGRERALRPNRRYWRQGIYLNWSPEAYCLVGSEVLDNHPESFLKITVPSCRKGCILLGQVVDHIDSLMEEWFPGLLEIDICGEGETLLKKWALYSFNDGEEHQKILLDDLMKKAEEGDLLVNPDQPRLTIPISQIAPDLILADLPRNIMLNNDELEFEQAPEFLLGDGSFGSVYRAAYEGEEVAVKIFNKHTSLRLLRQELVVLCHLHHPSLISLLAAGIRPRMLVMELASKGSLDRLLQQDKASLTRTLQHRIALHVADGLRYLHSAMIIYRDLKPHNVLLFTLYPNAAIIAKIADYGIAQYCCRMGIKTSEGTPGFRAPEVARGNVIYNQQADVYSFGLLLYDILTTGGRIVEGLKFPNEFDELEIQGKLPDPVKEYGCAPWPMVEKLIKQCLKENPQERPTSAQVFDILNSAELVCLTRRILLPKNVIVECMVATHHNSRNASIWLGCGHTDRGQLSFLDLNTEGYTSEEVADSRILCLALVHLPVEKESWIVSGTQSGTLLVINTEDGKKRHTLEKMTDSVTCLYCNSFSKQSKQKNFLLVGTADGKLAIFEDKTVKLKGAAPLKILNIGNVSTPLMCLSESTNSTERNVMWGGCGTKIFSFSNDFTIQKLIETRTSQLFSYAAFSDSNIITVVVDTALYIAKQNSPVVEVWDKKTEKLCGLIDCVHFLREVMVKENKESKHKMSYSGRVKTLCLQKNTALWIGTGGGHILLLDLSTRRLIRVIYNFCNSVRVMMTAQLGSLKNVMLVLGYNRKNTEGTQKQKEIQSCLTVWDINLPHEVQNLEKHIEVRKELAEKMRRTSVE
The test can be described thus: cryo-EM structure at […] Å; also ADP-Glo kinase inhibition.

Molecules are shown by their SMILES.

T1 sequence (Q5S007 whole entry): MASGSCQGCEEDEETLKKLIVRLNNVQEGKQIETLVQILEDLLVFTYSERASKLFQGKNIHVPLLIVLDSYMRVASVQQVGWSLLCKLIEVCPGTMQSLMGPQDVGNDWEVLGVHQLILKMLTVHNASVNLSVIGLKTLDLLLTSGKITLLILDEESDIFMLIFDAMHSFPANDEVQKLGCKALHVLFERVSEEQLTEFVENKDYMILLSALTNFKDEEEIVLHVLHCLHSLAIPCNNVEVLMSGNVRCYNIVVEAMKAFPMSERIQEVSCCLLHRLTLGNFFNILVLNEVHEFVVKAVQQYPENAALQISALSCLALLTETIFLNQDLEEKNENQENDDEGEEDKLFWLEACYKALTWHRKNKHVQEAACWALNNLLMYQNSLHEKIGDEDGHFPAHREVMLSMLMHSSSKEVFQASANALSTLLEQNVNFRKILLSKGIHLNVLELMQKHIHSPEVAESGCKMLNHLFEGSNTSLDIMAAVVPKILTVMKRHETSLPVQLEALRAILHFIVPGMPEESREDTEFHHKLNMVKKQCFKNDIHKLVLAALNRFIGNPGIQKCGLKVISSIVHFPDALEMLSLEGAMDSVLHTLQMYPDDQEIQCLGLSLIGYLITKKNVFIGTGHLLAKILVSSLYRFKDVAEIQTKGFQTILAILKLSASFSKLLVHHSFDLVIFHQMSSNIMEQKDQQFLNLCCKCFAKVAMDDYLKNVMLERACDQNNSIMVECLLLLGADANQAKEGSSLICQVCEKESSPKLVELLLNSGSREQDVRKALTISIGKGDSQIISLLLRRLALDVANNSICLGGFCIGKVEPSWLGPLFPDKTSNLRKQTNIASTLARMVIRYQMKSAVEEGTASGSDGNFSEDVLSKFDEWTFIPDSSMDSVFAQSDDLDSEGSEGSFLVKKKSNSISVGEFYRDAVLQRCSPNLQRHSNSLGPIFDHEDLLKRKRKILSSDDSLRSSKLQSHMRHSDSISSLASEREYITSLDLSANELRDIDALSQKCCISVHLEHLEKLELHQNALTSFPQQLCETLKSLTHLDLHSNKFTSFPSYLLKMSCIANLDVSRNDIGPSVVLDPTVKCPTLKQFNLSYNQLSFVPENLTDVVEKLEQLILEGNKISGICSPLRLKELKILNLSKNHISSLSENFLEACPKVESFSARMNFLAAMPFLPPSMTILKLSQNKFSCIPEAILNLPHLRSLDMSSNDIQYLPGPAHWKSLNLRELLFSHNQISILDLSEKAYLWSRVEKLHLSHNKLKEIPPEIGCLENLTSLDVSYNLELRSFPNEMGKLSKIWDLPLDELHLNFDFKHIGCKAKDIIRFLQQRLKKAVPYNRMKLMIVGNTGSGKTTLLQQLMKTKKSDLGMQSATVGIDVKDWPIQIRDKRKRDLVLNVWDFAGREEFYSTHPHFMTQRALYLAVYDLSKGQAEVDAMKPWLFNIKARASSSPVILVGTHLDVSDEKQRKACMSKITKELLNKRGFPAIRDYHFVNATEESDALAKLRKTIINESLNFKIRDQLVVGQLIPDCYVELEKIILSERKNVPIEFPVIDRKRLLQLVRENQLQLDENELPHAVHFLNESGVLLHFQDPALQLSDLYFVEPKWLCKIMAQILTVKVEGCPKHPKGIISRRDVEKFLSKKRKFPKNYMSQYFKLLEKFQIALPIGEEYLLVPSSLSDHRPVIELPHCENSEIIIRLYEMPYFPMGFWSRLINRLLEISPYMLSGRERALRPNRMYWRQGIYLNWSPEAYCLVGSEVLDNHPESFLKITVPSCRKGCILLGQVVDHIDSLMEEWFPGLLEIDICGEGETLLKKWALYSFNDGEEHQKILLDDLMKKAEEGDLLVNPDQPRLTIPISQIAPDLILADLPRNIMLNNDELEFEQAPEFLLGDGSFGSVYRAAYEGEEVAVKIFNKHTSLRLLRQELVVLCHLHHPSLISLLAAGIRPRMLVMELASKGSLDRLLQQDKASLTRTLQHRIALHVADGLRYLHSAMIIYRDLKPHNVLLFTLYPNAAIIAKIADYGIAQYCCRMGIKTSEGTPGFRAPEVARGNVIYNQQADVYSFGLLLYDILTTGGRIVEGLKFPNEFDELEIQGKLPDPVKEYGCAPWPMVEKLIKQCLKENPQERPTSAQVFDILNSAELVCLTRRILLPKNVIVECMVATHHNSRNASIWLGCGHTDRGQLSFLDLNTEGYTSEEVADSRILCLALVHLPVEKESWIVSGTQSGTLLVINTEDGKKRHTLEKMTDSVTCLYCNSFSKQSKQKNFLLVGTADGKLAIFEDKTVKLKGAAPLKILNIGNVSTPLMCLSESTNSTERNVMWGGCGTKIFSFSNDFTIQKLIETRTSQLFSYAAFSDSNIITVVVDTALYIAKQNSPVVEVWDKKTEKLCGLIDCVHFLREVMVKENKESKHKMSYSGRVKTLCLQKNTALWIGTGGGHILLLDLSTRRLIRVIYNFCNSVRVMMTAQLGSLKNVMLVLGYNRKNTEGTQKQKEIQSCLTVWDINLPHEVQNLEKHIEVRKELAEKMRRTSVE

In the case of `CNC(=O)c1cc(Oc2ccc(NC(=O)Nc3cc(C(C)(C)C)nn3-c3ccc4ncccc4c3)c(F)c2)ccn1` [rebastinib], the “cryo-EM structure at 3.7 Å; also ADP-Glo kinase inhibition (RCKWm)” value in test [1] is recorded as 8U8B (LRRK2–rebastinib), 8U8A (LRRK2–ponatinib), 8U7L (LRRK2–GZD-824).
Consider `Cc1ccc(C(=O)Nc2ccc(CN3CCN(C)CC3)c(C(F)(F)F)c2)cc1C#Cc1cnc2[nH]ncc2c1` [GZD-824], for which, in test [2], the “cryo-EM structure at 3.6 Å; also ADP-Glo kinase inhibition (RCKWm)” value is “GZD-824 and ponatinib are analogous compounds and bind to LRRK2 in a similar manner”.
In the case of `COc1cc(C(=O)N2CCC(N3CCN(C)CC3)CC2)ccc1Nc1ncc2c(n1)N(C)c1ccccc1C(=O)N2C` [LRRK2-IN-1], the “cryo-EM structure at 3.5 Å; also ADP-Glo kinase inhibition” value in test [3] is 8U7H (LRRK2^RCKWm–GNE-7915) and 8FO7 (LRRK2^RCKWm–LRRK2-IN-1).
